From ChEMBL document CHEMBL5375967 (J Med Chem, 2023)
Converted amounts (≈) assume the structure as drawn. The source made the active and inactive calls. The calls are words filed in the database; no cut-off is given here.

Key:
[1] = in vivo; conditions: C57BL/6, mouse, in vivo, po, 10 mg/kg
[2] = Clearance in Wistar rat at 1 mg/kg, iv measured upto 24 hrs by LC-MS/MS analysis; type: ADME, organism-based; conditions: in vivo
[3] = in vivo; conditions: Sprague-Dawley, rat, iv, 1 mg/kg
[4] = Solubility of compound in SGF at pH […]; type: physicochemical
[5] = Inhibition of arachidonic acid-stimulated LTB4 release in skin inflammation 129S2/SvPasCrl mouse model at 0.3 mg/kg, po pretreated with compound for 4 hrs followed by arachidonic acid stimulation and measured after 1 hr; type: functional
[6] = Cmax in Wistar rat at 30 mg/kg, po measured upto 24 hrs by LC-MS/MS analysis; type: ADME, organism-based; design: time < 24 hrs, dose 30 mg/kg, route po; conditions: in vivo
[7] = Metabolic stability in human hepatocyte assessed as intrinsic clearance; type: ADME, cell-based; conditions: hepatocytes
[8] = Metabolic stability in mouse hepatocyte assessed as intrinsic clearance; type: ADME, cell-based; conditions: hepatocytes
[9] = MRT in dog at 1 mg/kg, iv measured upto 24 hrs by LC-MS/MS analysis; type: ADME, organism-based, Canis lupus familiaris; conditions: in vivo
[10] = in vivo; conditions: Sprague-Dawley, rat, iv, 1 mg/kg; remark: listed apart in the source
[11] = AUC (0 to infinity) in Wistar rat at 30 mg/kg, po measured upto 24 hrs by LC-MS/MS analysis; type: ADME, organism-based; design: dose 30 mg/kg, time < 24 hrs, route po; conditions: in vivo
[12] = Volume of distribution at steady state in Wistar rat at 1 mg/kg, iv measured upto 24 hrs by LC-MS/MS analysis; type: ADME, organism-based; conditions: in vivo, read-out: Vdss
[13] = system: Leukotriene A4 hydrolase (Homo sapiens); test: Inhibition of LTB4 in calcium ionophore A23187-stimulated human PBMC cells at 1 uM pretreated with compound for 15 mins followed by calcium ionophore A23187 induction and measured after 2 hrs by LC-MS/MS analysis; conditions: time 135.0 min
[14] = in vitro; conditions: dog, MDCK
[15] = Volume of distribution at steady state in dog at 1 mg/kg, iv measured upto 24 hrs by LC-MS/MS analysis; type: ADME, organism-based, Canis lupus familiaris; conditions: in vivo, read-out: Vdss
[16] = system: Mus musculus; test: Antiarthritic activity in KRN passive serum-induced arthritis C57BL/6 mouse model assessed as reduction in proteoglycan loss at 0.1 to 10 mg/kg, po bid measured on day 7 at 2 hrs after first dose and 14 hrs after second dose; type: functional, organism-based; conditions: dose 0.1-10 mg/kg, time 7.0 day
[17] = Half life in Wistar rat at 1 mg/kg, iv measured upto 24 hrs by LC-MS/MS analysis; type: ADME, organism-based; conditions: in vivo
[18] = in vitro; conditions: mouse, liver microsomes
[19] = Metabolic stability in dog hepatocyte assessed as intrinsic clearance; type: ADME, cell-based, Canis lupus familiaris; conditions: hepatocytes
[20] = AUC (0 to infinity) in Wistar rat at 3 mg/kg, po measured upto 24 hrs by LC-MS/MS analysis; type: ADME, organism-based; design: time < 24 hrs, dose 3 mg/kg, route po; conditions: in vivo
[21] = Inhibition of calcium ionophore A23187-stimulated LTB4 release in C57BL/6 mouse model at 10 mg/kg, po bid measured after 24 hrs; type: functional
[22] = in vivo; conditions: Sprague-Dawley, rat, po, 3 mg/kg
[23] = Inhibition of neutrophil influx in arachidonic acid-stimulated skin inflammation 129S2/SvPasCrl mouse model assessed as effect on MPO level in skin at 0.03 mg/kg, po pretreated with compound for 4 hrs followed by arachidonic acid stimulation and measured after 1 hr; type: functional; conditions: time 5 hrs
[24] = biological target: Voltage-gated inwardly rectifying potassium channel KCNH2 (Homo sapiens, UniProt Q12809)
[25] = biological target: T1, Leukotriene A-4 hydrolase (Homo sapiens, UniProt P09960); test: Inhibition of LTA4H in human whole blood assessed as ionophore-stimulated LTB4 release preincubated for 15 mins by competitive immunoassay; type: tissue-based
T1 sequence (P09960 whole entry): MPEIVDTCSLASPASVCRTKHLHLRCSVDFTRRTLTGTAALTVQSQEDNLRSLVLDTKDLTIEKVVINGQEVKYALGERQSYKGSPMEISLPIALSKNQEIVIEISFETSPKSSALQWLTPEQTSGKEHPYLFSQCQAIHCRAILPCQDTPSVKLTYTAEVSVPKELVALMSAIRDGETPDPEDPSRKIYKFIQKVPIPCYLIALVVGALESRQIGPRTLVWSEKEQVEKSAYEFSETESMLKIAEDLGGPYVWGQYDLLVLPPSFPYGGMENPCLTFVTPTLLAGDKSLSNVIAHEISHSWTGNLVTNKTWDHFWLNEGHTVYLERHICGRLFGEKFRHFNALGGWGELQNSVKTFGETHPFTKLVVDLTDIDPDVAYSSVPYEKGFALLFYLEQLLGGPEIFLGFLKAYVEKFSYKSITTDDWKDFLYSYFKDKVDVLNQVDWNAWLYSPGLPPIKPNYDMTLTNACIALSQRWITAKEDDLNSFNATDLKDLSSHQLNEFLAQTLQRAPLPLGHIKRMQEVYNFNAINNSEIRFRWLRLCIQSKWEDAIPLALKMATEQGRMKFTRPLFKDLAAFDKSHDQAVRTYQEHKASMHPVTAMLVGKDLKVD

[26] = Oral bioavailability in Wistar rat at 30 mg/kg measured upto 24 hrs by LC-MS/MS analysis; type: ADME, organism-based; conditions: in vivo
[27] = physchem; conditions: octanol/water, pH 7.4
[28] = Oral bioavailability in dog at 3 mg/kg measured upto 24 hrs by LC-MS/MS analysis; type: ADME, organism-based, Canis lupus familiaris; conditions: in vivo
[29] = system: Mus musculus; test: Antiarthritic activity in KRN passive serum-induced arthritis C57BL/6 mouse model assessed as reduction in paw swelling at 0.1 to 10 mg/kg, po bid measured on day 7 at 2 hrs after first dose and 14 hrs after second dose; type: functional, organism-based; conditions: dose 0.1-10 mg/kg, time 7.0 day
[30] = in vivo; conditions: Sprague-Dawley, rat, iv, 1 mg/kg; remark: listed apart in the source
[31] = system: Mus musculus; test: Antiarthritic activity in KRN passive serum-induced arthritis C57BL/6 mouse model assessed as reduction in tissue destruction at 0.1 to 10 mg/kg, po bid measured on day 7 at 2 hrs after first dose and 14 hrs after second dose; type: functional, organism-based; conditions: dose 0.1-10 mg/kg, time 7.0 day
[32] = Half life in C57BL/6 mouse at 1 mg/kg, iv measured upto 24 hrs by LC-MS/MS analysis; type: ADME, organism-based; conditions: in vivo
[33] = Solubility of compound in FeSSIF at pH 6.8; type: physicochemical
[34] = Inhibition of neutrophil influx in arachidonic acid-stimulated skin inflammation 129S2/SvPasCrl mouse model assessed as effect on MPO level in skin at 0.3 mg/kg, po pretreated with compound for 4 hrs followed by arachidonic acid stimulation and measured after 1 hr; type: functional; conditions: time 5 hrs
[35] = AUC (0 to infinity) in C57BL/6 mouse at 3 mg/kg, po measured upto 24 hrs by LC-MS/MS analysis; type: ADME, organism-based; design: time < 24 hrs, dose 3 mg/kg, route po; conditions: in vivo
[36] = Cmax in C57BL/6 mouse at 3 mg/kg, po measured upto 24 hrs by LC-MS/MS analysis; type: ADME, organism-based; design: time < 24 hrs, dose 3 mg/kg, route po; conditions: in vivo

Voltage-gated inwardly rectifying potassium channel KCNH2, sequence (Q12809 whole entry): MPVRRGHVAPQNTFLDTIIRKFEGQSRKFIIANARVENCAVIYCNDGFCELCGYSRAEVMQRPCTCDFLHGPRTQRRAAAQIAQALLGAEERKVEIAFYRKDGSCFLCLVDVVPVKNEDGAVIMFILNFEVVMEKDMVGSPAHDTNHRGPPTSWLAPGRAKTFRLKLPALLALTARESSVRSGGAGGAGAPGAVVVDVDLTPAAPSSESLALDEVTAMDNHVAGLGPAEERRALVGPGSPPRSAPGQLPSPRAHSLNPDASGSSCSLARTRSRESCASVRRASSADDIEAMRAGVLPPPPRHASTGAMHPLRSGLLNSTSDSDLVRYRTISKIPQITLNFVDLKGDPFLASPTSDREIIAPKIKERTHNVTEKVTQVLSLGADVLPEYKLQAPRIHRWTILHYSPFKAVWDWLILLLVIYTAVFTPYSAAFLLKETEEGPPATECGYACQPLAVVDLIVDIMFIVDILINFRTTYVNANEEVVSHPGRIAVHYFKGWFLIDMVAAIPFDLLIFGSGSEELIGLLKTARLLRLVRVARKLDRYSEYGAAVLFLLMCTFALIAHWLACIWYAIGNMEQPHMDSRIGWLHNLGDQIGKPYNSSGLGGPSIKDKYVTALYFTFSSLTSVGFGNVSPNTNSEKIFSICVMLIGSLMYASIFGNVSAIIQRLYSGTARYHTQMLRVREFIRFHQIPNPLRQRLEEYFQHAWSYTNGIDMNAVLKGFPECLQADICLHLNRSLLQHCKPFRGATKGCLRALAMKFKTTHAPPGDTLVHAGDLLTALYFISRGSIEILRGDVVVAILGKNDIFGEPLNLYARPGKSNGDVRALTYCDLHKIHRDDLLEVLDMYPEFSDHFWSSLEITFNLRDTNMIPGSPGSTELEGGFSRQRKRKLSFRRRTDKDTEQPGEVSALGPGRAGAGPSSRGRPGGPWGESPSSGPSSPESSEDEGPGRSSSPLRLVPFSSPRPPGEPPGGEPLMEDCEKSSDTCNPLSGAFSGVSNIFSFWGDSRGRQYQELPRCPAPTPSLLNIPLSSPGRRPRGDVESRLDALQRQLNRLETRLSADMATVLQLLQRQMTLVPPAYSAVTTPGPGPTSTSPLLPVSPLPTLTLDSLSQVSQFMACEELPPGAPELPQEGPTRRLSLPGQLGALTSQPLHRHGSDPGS

- concentration at 2 h [1]: 2600 nM
- clearance [2]: 7.3 mL/min/kg
- bioavailability [3]: 57%
- solubility [4]: 27 µg/mL (≈ 68.5 µM)
- Cmax [6]: 5490 nM
- CLH [7]: < 4 µL/min/mg
- CLH [8]: 6 µL/min/mg
- MRT [9]: 28 h
- concentration at 24 h [10]: 32 nM
- AUC(0-inf) [11]: 59.2 µM·h
- Vd [12]: 6.9 L/kg
- inhibition [13]: 100%
- Papp A→B [14]: 12 ×10⁻⁶ cm/s
- Vd [15]: 7 L/kg
- half-life [17]: 13 h
- microsomal CLint [18]: 90 µL/min/mg
- CLH [19]: 6 µL/min/mg
- AUC(0-inf) [20]: 4.99 µM·h
- AUC(0-inf) [22]: 3.87 µM·h
- IC50 [25]: 0.047 µM
- bioavailability [26]: 46%
- logD [27]: 2
- bioavailability [28]: 39%
- Vd [30]: 5.5 L/kg
- half-life [32]: 3.4 h
- solubility [33]: > 2000 µg/mL
- AUC(0-inf) [35]: 5.51 µM·h
- Cmax [36]: 443 nM
SMILES: N[C@H](CO)Cn1ccc(-c2ccc(Oc3ncc(-c4cc[nH]n4)cc3F)cc2)n1
- inhibition in vivo at 0.3 mg/kg [5]: 93%
- Activity [16]: Active
- inhibition in vivo at 10 mg/kg [21]: 93%
- inhibition in vivo at 0.03 mg/kg [23]: 52%
- IC50 [24]: 27 µM
- Activity [29]: Active
- Activity [31]: Active
- inhibition in vivo at 0.3 mg/kg [34]: 81%
